# Measurements from ChEMBL document CHEMBL3596135, “A critical evaluation of pyrrolo[2,3-d]pyrimidine-4-amines as Plasmodium falciparum apical membrane antigen 1 (AMA1) inhibitors” (Medchemcomm, 2014).
# Counter-ions that a name gives are not always drawn. Calls of active or inactive are those of the source. The calls are words filed in the database; no cut-off is given here.
# Columns and labels:
# [1] = biological target: T1, Apical membrane antigen 1 (Plasmodium falciparum (isolate 3D7), UniProt Q7KQK5); assay: Binding affinity to recombinant His-tagged Plasmodium falciparum 3D7 AMA1 assessed as inhibition of interaction with biotin-tagged RON2 peptide after 30 mins by AlphaScreen assay
# T1 sequence (Q7KQK5 whole entry): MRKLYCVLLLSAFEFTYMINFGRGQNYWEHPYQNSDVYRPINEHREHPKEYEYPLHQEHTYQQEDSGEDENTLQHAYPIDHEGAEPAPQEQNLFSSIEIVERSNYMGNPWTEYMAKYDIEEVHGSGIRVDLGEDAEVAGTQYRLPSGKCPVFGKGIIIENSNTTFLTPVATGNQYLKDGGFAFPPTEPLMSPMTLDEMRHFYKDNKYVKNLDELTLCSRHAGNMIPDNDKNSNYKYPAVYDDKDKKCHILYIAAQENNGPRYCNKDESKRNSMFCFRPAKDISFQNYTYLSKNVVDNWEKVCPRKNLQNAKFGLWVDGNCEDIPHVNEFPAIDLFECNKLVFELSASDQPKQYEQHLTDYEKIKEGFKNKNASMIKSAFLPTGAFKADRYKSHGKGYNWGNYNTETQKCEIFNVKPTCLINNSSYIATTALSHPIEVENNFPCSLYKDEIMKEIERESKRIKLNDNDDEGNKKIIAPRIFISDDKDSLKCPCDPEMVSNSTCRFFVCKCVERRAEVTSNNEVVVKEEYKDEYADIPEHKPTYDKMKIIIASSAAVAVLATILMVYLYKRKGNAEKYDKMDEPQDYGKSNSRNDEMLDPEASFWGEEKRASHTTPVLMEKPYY
# [2] = Solubility of the compound in phosphate buffer at pH 7.4; type: physicochemical
# Plasmodium falciparum [3] = assay: Antimalarial activity against Plasmodium falciparum FVO schizont infected in RBC assessed as inhibition of merozoite invasion after 3 to 4 hrs by flow cytometric analysis; type: functional, organism-based
# [4] = Self-aggregating activity of the compound in phosphate buffer at pH 7.4 at 5 to 80 uM by 1D 1H-NMR spectroscopic analysis in absence of Tween 20; type: physicochemical; settings: pH 7.4, 80 µM
# [5] = biological target: T1, Apical membrane antigen 1; assay: Binding affinity to Plasmodium falciparum 3D7 AMA1 (104 to 442) by SPR analysis
# Plasmodium falciparum [6] = assay: Antimalarial activity against synchronised early trophozoite stage of Plasmodium falciparum 3D7 assessed as parasite growth inhibition measured after two invasion cycles by flow cytometric analysis; type: functional, organism-based
# [7] = Self-aggregating activity of the compound in phosphate buffer at pH 7.4 at 80 uM by 1D 1H-NMR spectroscopic analysis in presence of Tween 20; type: physicochemical; settings: pH 7.4, 80 µM
# [8] = biological target: T2, Apical membrane antigen 1 (Plasmodium falciparum (isolate 3D7)) (UniProt Q7KQK5); assay: Binding affinity to Plasmodium falciparum 3D7 AMA1 (104 to 442) up to 200 uM by SPR analysis
# T2 sequence (whole entry): T1 sequence (Q7KQK5 whole entry)
# [9] = biological target: T2, Apical membrane antigen 1 (Plasmodium falciparum (isolate 3D7)); assay: Competitive binding affinity to Plasmodium falciparum 3D7 AMA1 (104 to 442) at 80 uM after 200 milisecs by CPMG binding assay in presence of RON2 peptide and Tween 20
# [10] = biological target: T2, Apical membrane antigen 1 (Plasmodium falciparum (isolate 3D7)); assay: Competitive binding affinity to Plasmodium falciparum 3D7 AMA1 (104 to 442) at 80 uM after 200 milisecs by CPMG binding assay in presence of R1 peptide and absence of detergent
# [11] = biological target: T2, Apical membrane antigen 1 (Plasmodium falciparum (isolate 3D7)); assay: Competitive binding affinity to Plasmodium falciparum 3D7 AMA1 (104 to 442) at 80 uM after 200 milisecs by CPMG binding assay in presence of RON2 peptide and absence of detergent
# [12] = biological target: T2, Apical membrane antigen 1 (Plasmodium falciparum (isolate 3D7)); assay: Competitive binding affinity to Plasmodium falciparum 3D7 AMA1 (104 to 442) at 80 uM after 200 milisecs by CPMG binding assay in presence of R1 peptide and Tween 20
solubility [2],Activity [4],Kd [5] [µM],Activity [7],SMILES,growth inhibition (GI) (Plasmodium falciparum [6]),other results
soluble,Active,≥ 1000,Not Active,Nc1ncnc2c1c(-c1ccc(Oc3ccccc3)cc1)cn2C1CCCC1,,IC50 (Plasmodium falciparum [3]): 30 µM; IC50 (Plasmodium falciparum [6]): > 1000 µM
soluble,Active,≥ 1000,Not Active,CN(C)c1ncnc2c1c(-c1ccc(Oc3ccccc3)cc1)cn2C1CCCC1,,IC50 (Plasmodium falciparum [3]): 6 µM; IC50 (Plasmodium falciparum [6]): > 1000 µM
soluble,Not Active,≥ 1000,Not Active,COc1ccc(-c2cn(C)c3ncnc(N)c23)cc1,Active,
soluble,Not Active,≥ 1000,Not Active,COc1ccc(-c2cn(C3CCCC3)c3ncnc(N)c23)cc1,,Activity [9]: Active; IC50 (Plasmodium falciparum [3]): 9.8 µM; Activity [10]: Active; Activity [11]: Active; Activity [12]: Active; IC50 (Plasmodium falciparum [6]): 63 µM
soluble,Not Active,≥ 1000,Not Active,CCn1cc(-c2ccc(OC)cc2)c2c(N)ncnc21,Active,
soluble,Not Active,≥ 1000,Not Active,Cn1cc(-c2ccccc2)c2c(N)ncnc21,Active,

# Further lines, the compound ahead of its results:
SMILES,solubility [2],Activity [4],Kd [5] [µM],Activity [7],growth inhibition (GI) (Plasmodium falciparum [6]),other results
CN(C)CCCN1c2ccccc2C(C)(C)c2ccccc21 [DIMETACRINE],,,,,,IC50 [1]: 28 µM
Clc1[nH]cnc2nccc1-2,,,,,,Activity [8]: inactive
Cn1cc(-c2ccncc2)c2c(N)ncnc21,soluble,Not Active,≥ 1000,Not Active,Active,
Cn1cc(-c2ccccc2F)c2c(N)ncnc21,soluble,Not Active,≥ 1000,Not Active,Active,
Cn1cc(-c2cccc(F)c2)c2c(N)ncnc21,soluble,Not Active,≥ 1000,Not Active,,IC50 (Plasmodium falciparum [6]): < 31 µM
Clc1ncnc2c1c(Br)cn2C1CCCC1,,,,,,Activity [8]: inactive
Cn1cc(-c2ccc(F)cc2)c2c(N)ncnc21,soluble,Not Active,≥ 1000,Not Active,Active,
Cn1cc(-c2cccc(N)c2)c2c(N)ncnc21,soluble,Not Active,≥ 1000,Not Active,Active,
COc1ccccc1-c1cn(C)c2ncnc(N)c12,soluble,Not Active,≥ 1000,Not Active,Active,
Clc1cccc(C(c2ccc3[nH]cnc3c2)n2ccnc2)c1 (stereo unspecified) [LIAROZOLE HYDROCHLORIDE],,,,,,IC50 [1]: 29 µM
COc1cccc(-c2cn(C)c3ncnc(N)c23)c1,soluble,Not Active,≥ 1000,Not Active,Active,
Cn1cc(-c2ccc(N)cc2)c2c(N)ncnc21,soluble,Not Active,≥ 1000,Not Active,Active,
